In the series the test system is ICR mouse skin. Description: Mouse skin penetration experiment, Franz diffusion cell. As to conditions: after 24 hr. Format: in vitro ADME, ICR outbred albino mice. The method, then:
In order to evaluate the transdermal penetration rate of the micelle nanoparticles of Example 1, a mouse skin penetration experiment was performed through a Franz diffusion cell using the micelle nanoparticles as a sample. The mouse skin was extracted from the back of ICR outbred albino mice (12-week-old, about 50 g, females), which were killed by cervical dislocation. The subcutaneous fat was removed from the extracted skin (1.5 cm×1.5 cm) so that the skin was not hurt, and the dermis was used without being removed. The skin was fixed between the donor and the receptor phase so that the stratum corneum part of the back skin of the prepared ICR mice faced upwards.
The transepidermal area contacting the receptor phase was 0.6362 cm^2, and the receptor phase was a mixed solution of 2.0% HCO-60 (in 20% ethanol), showing the highest solubility in the preliminary experiments. 5 ml of the receptor phase was placed in a Franz diffusion cell, and the temperature was maintained at 37.0±0.5° C. using a constant-temperature water bath. Stirring to homogeneity was performed at 150 rpm for 24 hr. 0.5 ml of each sample was applied to the transepidermal surface of the donor, after which 0.75 ml of the receptor phase was collected every 8 hr (a total of 3 times) for 24 hr through a sampling port using a 1 ml syringe and stored in a 1.5 ml tube. Immediately after collection, supplementation with the same amount of the receptor solution was conducted. As such, the collected sample was analyzed through HPLC in order to quantify […] therein.
In order to measure the amount of PhS1P remaining on the skin, unpenetrated samples were washed three times with PBS immediately after taking the skin out of the diffusion cell. […] The ethanol was evaporated to dryness, after which PhS1P was dissolved again in 0.75 ml of ethanol, and the amount of PhS1P remaining on the skin was quantified through HPLC. […]

The values below come from US10751274B1, “Fast-acting micelle nanoparticle and cosmetic composition comprising same” (FOREST COMPANY, priority 2017, dated 2020).

Regarding `CCCCCCCCCCCCCC[C@@H](O)[C@@H](O)[C@@H](N)COP(=O)(O)O` [PhS1P solution, phytosphingosine-1-phosphate], the “amount of PhS1P remaining in the stratum corneum (tape stripping)” value was found to be 1.81 µg. The “amount of PhS1P that penetrated the skin (final cumulative)” value (receptor phase sampled every 8 hr, 0.5 ml sample) is 2.52 µg. Also, under “tape-stripped skin”, the “amount of PhS1P present in the skin” value was 2.72 µg.
